Data as given in US12558362B2, “Use of cannabidiol in the treatment of seizures associated with rett syndrome” (JAZZ PHARMACEUTICALS RESEARCH UK LIMITED, priority 2020, dated 2026).
“Also recorded” adds a separate entry of the source.

Assays:
[1] = system: mouse model of Rett syndrome; details: cited from earlier work
[2] = system: patients with Dravet and Lennox-Gastaut syndrome; details: cited from earlier work
[3] = system: patients diagnosed with Rett syndrome; assay: Open label, expanded-access program of botanically derived purified CBD: seizure frequency recorded in caregiver diaries relative to baseline; format: in vivo, human; design: Reduction in tonic seizures over the treatment period / Reduction in focal seizures with impairment over the treatment period / Reduction in absence seizures over the treatment period: concentration or dose not given beside the values; Seizure frequency, tonic / Seizure frequency, tonic-clonic / Seizure frequency, absence / Seizure frequency, focal with impairment: unit not given here; details: for Seizure frequency, focal with impairment: baseline 3.2
Procedure: Subjects were required to be on one or more AEDs at stable doses for a minimum of two weeks prior to baseline and to have stable vagus nerve stimulation (VNS) settings and ketogenic diet ratios for a minimum of four weeks prior to baseline.
Patients were administered botanically derived purified CBD in a 100 mg/mL sesame oil-based solution which was titrated to an initial dose of between 5 and 25 milligrams per kilogram per day (mg/kg/day) in two divided doses. Doses were then increased weekly by 5 mg/kg/day to a goal of 25 mg/kg/day where required.
A maximum dose of 50 mg/kg/day could be utilised for patients who were tolerating the medication but had not achieved seizure control; these patients had further weekly titration by 5 mg/kg/day.
There were three patients in this study, and each received CBD for various durations of time. Modifications were made to concomitant AEDs as per clinical indication.
Seizure frequency, intensity, and duration were recorded by caregivers in a diary during a baseline period of at least 28 days. Changes in seizure frequency relative to baseline were calculated after at least 2 weeks and at defined timepoints of treatment.
Patients may be defined as responders if they had more than 50% reduction in seizure frequency compared to baseline. The percent change in seizure frequency was calculated as follows: […]
The percent change of seizure frequency may be calculated for any time interval where seizure number has been recorded. For the purpose of this example the percent change of seizure frequency for the end of the treatment period was calculated as follows:
[formula] Results Patient Description

[4] = Patient 2, treated for 84 weeks
[5] = printed Patient 2 (follows Table 2C of Patient 3), treated for 36 weeks

## C=C(C)[C@@H]1CCC(C)=C[C@H]1c1c(O)cc(CCC)cc1O [CBDV, cannabidivarin]
[1]
  Behavioural alterations: rescue the behavioural alterations

## C=C(C)[C@@H]1CCC(C)=C[C@H]1c1c(O)cc(CCCCC)cc1O [CBD, cannabidiol]
[2]
  Efficacy in randomized control trials: showed efficacy
[3]; Patient 1, 2 weeks, CBD 5.0 mg/kg/day, baseline 10.0
  Seizure frequency, tonic-clonic: 26.0
[3]; Patient 1, 2 weeks, CBD 5.0 mg/kg/day, baseline 22.4
  Seizure frequency, tonic: 22.0
[3]; Patient 1, 4 weeks, CBD 10.0 mg/kg/day, baseline 10.0
  Seizure frequency, tonic-clonic: 21.4
[3]; Patient 1, 4 weeks, CBD 10.0 mg/kg/day, baseline 22.4
  Seizure frequency, tonic: 38.0
[3]; Patient 1, 8 weeks, CBD 20.0 mg/kg/day, baseline 10.0
  Seizure frequency, tonic-clonic: 14.0
[3]; Patient 1, 8 weeks, CBD 20.0 mg/kg/day, baseline 22.4
  Seizure frequency, tonic: 28.0
[3]; Patient 1, 12 weeks, CBD 25.0 mg/kg/day, baseline 10.0
  Seizure frequency, tonic-clonic: 12.0
[3]; Patient 1, 12 weeks, CBD 25.0 mg/kg/day, baseline 22.4
  Seizure frequency, tonic: 28.0
[3]; Patient 1, 16 weeks, CBD 15.0 mg/kg/day, baseline 10.0
  Seizure frequency, tonic-clonic: 22.0
[3]; Patient 1, 16 weeks, CBD 15.0 mg/kg/day, baseline 22.4
  Seizure frequency, tonic: 14.0
[3]; Patient 1, 24 weeks, CBD 15.0 mg/kg/day, baseline 10.0
  Seizure frequency, tonic-clonic: 12.0
[3]; Patient 1, 24 weeks, CBD 15.0 mg/kg/day, baseline 22.4
  Seizure frequency, tonic: 8.0
[3]; Patient 1, 36 weeks, CBD 15.0 mg/kg/day, baseline 10.0
  Seizure frequency, tonic-clonic: 20.0
[3]; Patient 1, 36 weeks, CBD 15.0 mg/kg/day, baseline 22.4
  Seizure frequency, tonic: 20.0
[3]; Patient 1, treated for 36 weeks
  Reduction in tonic seizures over the treatment period: 10.7%
[3]; Patient 2, 8 weeks, CBD 20.0 mg/kg/day, baseline 0
  Seizure frequency, absence: 1.0
[3]; Patient 2, 8 weeks, CBD 20.0 mg/kg/day
  Seizure frequency, focal with impairment: 0
[3]; Patient 2, 8 weeks, CBD 20.0 mg/kg/day, baseline 5.6
  Seizure frequency, tonic: 3.0
[3]; Patient 2, 12 weeks, CBD 20.0 mg/kg/day, baseline 0
  Seizure frequency, absence: 0
[3]; Patient 2, 12 weeks, CBD 20.0 mg/kg/day
  Seizure frequency, focal with impairment: 0
[3]; Patient 2, 12 weeks, CBD 20.0 mg/kg/day, baseline 5.6
  Seizure frequency, tonic: 1.6
[3]; Patient 2, 16 weeks, CBD 20.0 mg/kg/day, baseline 0
  Seizure frequency, absence: 0
[3]; Patient 2, 16 weeks, CBD 20.0 mg/kg/day
  Seizure frequency, focal with impairment: 0
[3]; Patient 2, 16 weeks, CBD 20.0 mg/kg/day, baseline 5.6
  Seizure frequency, tonic: 2.0
[3]; Patient 2, 24 weeks, CBD 20.0 mg/kg/day, baseline 0
  Seizure frequency, absence: 0.8
[3]; Patient 2, 24 weeks, CBD 20.0 mg/kg/day
  Seizure frequency, focal with impairment: 0
[3]; Patient 2, 24 weeks, CBD 20.0 mg/kg/day, baseline 5.6
  Seizure frequency, tonic: 0.4
[3]; Patient 2, 36 weeks, CBD 20.0 mg/kg/day, baseline 0
  Seizure frequency, absence: 0.4
[3]; Patient 2, 36 weeks, CBD 20.0 mg/kg/day
  Seizure frequency, focal with impairment: 0
[3]; Patient 2, 36 weeks, CBD 20.0 mg/kg/day, baseline 5.6
  Seizure frequency, tonic: 0.4
[3]; Patient 2, 48 weeks, CBD 20.0 mg/kg/day, baseline 0
  Seizure frequency, absence: 0
[3]; Patient 2, 48 weeks, CBD 20.0 mg/kg/day
  Seizure frequency, focal with impairment: 0
[3]; Patient 2, 48 weeks, CBD 20.0 mg/kg/day, baseline 5.6
  Seizure frequency, tonic: 0.8
[3]; Patient 2, 60 weeks, CBD 20.0 mg/kg/day, baseline 0
  Seizure frequency, absence: 0
[3]; Patient 2, 60 weeks, CBD 20.0 mg/kg/day
  Seizure frequency, focal with impairment: 0
[3]; Patient 2, 60 weeks, CBD 20.0 mg/kg/day, baseline 5.6
  Seizure frequency, tonic: 1.4
[3]; Patient 2, 72 weeks, CBD 21.3 mg/kg/day, baseline 0
  Seizure frequency, absence: 0.4
[3]; Patient 2, 72 weeks, CBD 21.3 mg/kg/day
  Seizure frequency, focal with impairment: 0
[3]; Patient 2, 72 weeks, CBD 21.3 mg/kg/day, baseline 5.6
  Seizure frequency, tonic: 0.4
[3]; Patient 2, 84 weeks, CBD 20.0 mg/kg/day, baseline 0
  Seizure frequency, absence: 0.4
[3]; Patient 2, 84 weeks, CBD 20.0 mg/kg/day
  Seizure frequency, focal with impairment: 0
[3]; Patient 2, 84 weeks, CBD 20.0 mg/kg/day, baseline 5.6
  Seizure frequency, tonic: 0.4
[3]; [4]
  Reduction in focal seizures with impairment over the treatment period: 100%
  Reduction in tonic seizures over the treatment period: 92.9%
[3]; Patient 3, 4 weeks, CBD 25.0 mg/kg/day, baseline 4.0
  Seizure frequency, tonic-clonic: 4.0
[3]; Patient 3, 4 weeks, CBD 25.0 mg/kg/day, baseline 8.0
  Seizure frequency, absence: 1.0
[3]; Patient 3, 4 weeks, CBD 25.0 mg/kg/day, baseline 16.0
  Seizure frequency, tonic: 2.0
[3]; Patient 3, 12 weeks, CBD 25.0 mg/kg/day, baseline 4.0
  Seizure frequency, tonic-clonic: 4.0
[3]; Patient 3, 12 weeks, CBD 25.0 mg/kg/day, baseline 8.0
  Seizure frequency, absence: 0
[3]; Patient 3, 12 weeks, CBD 25.0 mg/kg/day, baseline 16.0
  Seizure frequency, tonic: 1.0
[3]; Patient 3, 16 weeks, CBD 25.0 mg/kg/day, baseline 4.0
  Seizure frequency, tonic-clonic: 6.0
[3]; Patient 3, 16 weeks, CBD 25.0 mg/kg/day, baseline 8.0
  Seizure frequency, absence: 0
[3]; Patient 3, 16 weeks, CBD 25.0 mg/kg/day, baseline 16.0
  Seizure frequency, tonic: 4.0
[3]; Patient 3, 24 weeks, CBD 25.0 mg/kg/day, baseline 4.0
  Seizure frequency, tonic-clonic: 8.0
[3]; Patient 3, 24 weeks, CBD 25.0 mg/kg/day, baseline 8.0
  Seizure frequency, absence: 4.0
[3]; Patient 3, 24 weeks, CBD 25.0 mg/kg/day, baseline 16.0
  Seizure frequency, tonic: 0
[3]; Patient 3, 36 weeks, CBD 25.0 mg/kg/day, baseline 4.0
  Seizure frequency, tonic-clonic: 6.0
[3]; Patient 3, 36 weeks, CBD 25.0 mg/kg/day, baseline 8.0
  Seizure frequency, absence: 1.0
[3]; Patient 3, 36 weeks, CBD 25.0 mg/kg/day, baseline 16.0
  Seizure frequency, tonic: 4.0
[3]; all three patients, range over patients and seizure types
  Reductions in seizures over the period of treatment, overall: 10.7-100.0%
[3]; conclusion, all patients
  Decrease of seizure frequency rates: tonic, tonic-clonic, absence and focal seizures with impairment: 11-100.0%
[3]; one patient (patient 2)
  Seizure freedom, focal seizures with impairment: became seizure free of focal seizures with impairment
[3]; [5]
  Reduction in absence seizures over the treatment period: 87.5%
  Reduction in tonic seizures over the treatment period: 75%
[3]; range over the three patients
  Reduction in tonic seizures, all three patients: 11-93%
[3]; summary statement of the program
  Reduction of seizures associated with Rett syndrome: significantly reduce the number of seizures; also recorded: significant reduction in specific seizure types
[3]; three patients with Rett syndrome
  Effect on frequency of tonic, absence and focal seizures with impairment: effective in reducing the frequency
